Results taken from patent US8003372B2, “Device for performing cell assays” (The University Court of the University of Glasgow, priority 2002, dated 2011).

System: adult ventricular myocytes
Experimental: Single cardiac myocytes were isolated from rabbit ventricles by collagenase digestion (D. A. Eisner, C. G. Nichols, S. C. O'Neill, G. L. Smith and M. Valdeomillos, The effects of metabolic inhibition on intracellular calcium an pH in isolated rat ventricular cells, Journal of Physiology, 411, (1989), 393-418) and kept in Base Krebs Solution, containing 120 mM NaCl, 20 mM sodium N-hydroxyethylpiperazine-N′-2-ethane sulphonic acid, 5.4 mM KCl, 0.52 mM NaH2PO4, 3.5 mM MgCl2.6H2O, 20 mM Taurine, 10 mM Creatine, 100 mM Glucose, 0.1% BSA, 0.1 mM CaCl2. The pH was adjusted to 7.4 with 100 mM NaOH.
Sarcomere length and intracellular Ca^2+ concentration ([Ca^2+]i) were monitored simultaneous using the fluorescence-contractility System of Ionoptix (Milton, Mass., USA). Ventricular myocytes were loaded with Fluo-3 by incubation for 30 min in 20 μM Fluo-3 AM solution (Molecular Probes). […] To measure the possible change in extracellular pH during field stimulation, 10 μM BCECF (Molecular Probes) was added to the bath and the emission was recorded using the same filter set as for Fluo-3. […]
Symmetric biphasic rectangular pulses were generated across the electrodes. […] A voltage-current converter was used to read the current response of one electrode together with the corresponding voltage into a 20 MHz 4 channel acquisition card (PCI-9812, Adlink, Taiwan). A TTL signal synchronous to the biphasic pulses was fed into the reader of the PMT-current to mark each pulse arrival on the fluorescence trace for off-line event averaging. After filling the microchambers with electrolyte (buffer), the current evoked on the individual stimulation electrodes was monitored to assure the ionic connection between the microelectrodes in each chamber, prior to the addition of cardiac muscle cells. The measured current was integrated to give a measure of the total amount of net-charge added to the microchamber, and the polarization of the electrode surface. […]

N#CC(C#N)=NNc1ccc(OC(F)(F)F)cc1 [FCCP]
Ca2+ transients evoked at 0.5 Hz (1 μM FCCP, 10 minutes after the 50 min time point of continual stimulation, 100 pL chamber): ceased almost completely
response of the cell to electrical stimuli (Ca2+ transient) (1 μM FCCP, after 50 min continual stimulation at alternating frequencies of 0.5 and 1.0 Hz, 100 pL chamber): no longer responded to every single stimulus with a Ca^2+ transient of normal amplitude
excitability of the cell after washing out (after washing out FCCP, changing the buffer and a 5 min rest interval): regained its excitability
